The results in this text go back to ChEMBL document CHEMBL6083219, “Rationally designed febuxostat-based hydroxamic acid and its pH-Responsive nanoformulation elicits anti-tumor activity” (Eur J Med Chem, 2024).

The subject of experiment [1] is HL-60. Put plainly: Downregulation of HDAC1 expression level in human HL-60 cells at 0.5 to 2 uM by Western blotting analysis. In kind it is functional, cell-based. Particulars: dose 0.5-2 µM.
Experiment [2] relates to MDA-MB-231. The experiment in a line: Downregulation of HDAC6 expression level in human MDA-MB-231 cells at 0.5 to 2 uM by Western blotting analysis. The class given is functional, cell-based. Particulars: dose 0.5-2 µM.
Experiment [3] concerns MDA-MB-231. Put plainly: Upregulation of acetylated histone H3 level in human MDA-MB-231 cells by Western blotting analysis. The class given is functional, cell-based. As to conditions: dose 0.5-2 µM.
The test system of experiment [4] is MDA-MB-231. The experiment in a line: Upregulation of acetylated tubulin level in human MDA-MB-231 cells by Western blotting analysis. As to conditions: dose 0.5-2 µM. In kind it is functional, cell-based. (In general: Immunoblotting shows a protein as a band on a membrane.)
Experiment [5] relates to HL-60. The experiment in a line: Induction of apoptosis in human HL-60 cells at 0.5 to 2 uM incubated for 48 hrs by propidium iodide staining based flow cytometry analysis. The class given is functional, cell-based. As to conditions: dose 0.5-2 µM.
In experiment [6] the test system is HL-60. The experiment in a line: Upregulation of cleaved caspase-3 expression level in human HL-60 cells at 0.5 to 2 uM by Western blotting analysis. The class given is functional, cell-based. As to conditions: dose 0.5-2 µM.
The subject of experiment [7] is HL-60. The experiment in a line: Induction of apoptosis in human HL-60 cells assessed as morphological changes at 0.5 to 2 uM by DAPI staining based microscopic analysis. The class given is functional, cell-based. Particulars: dose 0.5-2 µM.
In experiment [8] the test system is MDA-MB-231. Put plainly: Induction of autophagy in human MDA-MB-231 cells assessed as upregulation of LC3-II expression level at 1 to 4 uM by Western blotting assay. The class given is functional, cell-based. As to conditions: dose 1-4 µM.
The subject of experiment [9] is Rattus norvegicus. Put plainly: Anti-hyperuricemic activity against potassium oxonate-induced hyperuricemia Wistar rat model assessed as decrease in serum uric acid level at 2.5 mg/kg measured after 14 days. As to conditions: time 14.0 day. The class given is functional, organism-based.
Experiment [10] has as its system Rattus norvegicus. Put plainly: Anti-hyperuricemic activity against potassium oxonate-induced hyperuricemia Wistar rat model assessed as decrease in serum creatinine level at 5 to 10 mg/kg measured after 14 days. The class given is functional, organism-based. As to conditions: dose 5-10 mg/kg, time 14.0 day.
The subject of experiment [11] is Rattus norvegicus. Put plainly: Anti-hyperuricemic activity against potassium oxonate-induced hyperuricemia Wistar rat model assessed as decrease in blood urea level at 5 to 10 mg/kg measured after 14 days. In kind it is functional, organism-based. Particulars: dose 5-10 mg/kg, time 14.0 day.
The test system of experiment [12] is Rattus norvegicus. Put plainly: Anti-hyperuricemic activity against potassium oxonate-induced hyperuricemia Wistar rat model assessed as decrease in number of eosinophils at 5 mg/kg measured after 14 days. Particulars: time 14.0 day. The class given is functional, organism-based.
Experiment [13] has as its system Rattus norvegicus. The experiment in a line: Anti-hyperuricemic activity against potassium oxonate-induced hyperuricemia Wistar rat model assessed as increase in RBC at 5 mg/kg measured after 14 days. As to conditions: time 14.0 day. In kind it is functional, organism-based.
The subject of experiment [14] is Rattus norvegicus. Put plainly: Anti-hyperuricemic activity against potassium oxonate-induced hyperuricemia Wistar rat model assessed as enhancement in complete blood count at 10 mg/kg measured after 14 days. The class given is functional, organism-based. As to conditions: time 14.0 day.
Experiment [15] relates to Rattus norvegicus. Put plainly: Anti-hyperuricemic activity against potassium oxonate-induced hyperuricemia Wistar rat model assessed as increase in number of cuboidal cells at 10 mg/kg measured after 14 days by H and E staining based assay. The class given is functional, organism-based. As to conditions: time 14.0 day.

The source made the active and inactive calls. The rule behind the calls is not given here.

As to `Cc1nc(-c2ccc(OCC(C)C)c(C#N)c2)sc1C(=O)NCCCCCCC(=O)NO`, the Activity result with HL-60 [1] was “Active; Activity More Potent Than Saha”; in the experiment with MDA-MB-231 [3] it was “Dose-dependent-effect”; in the experiment on MDA-MB-231 [4], “Dose-dependent-effect”; in the experiment with HL-60 [5] it was “Active; Activity Similar To Saha”. Further, the outcome with MDA-MB-231 [2], in the experiment with HL-60 [6], in the experiment with HL-60 [7], with MDA-MB-231 [8], in the experiment with Rattus norvegicus [10] and in the experiment on Rattus norvegicus [11] was Active. Further, the outcome in the experiment with Rattus norvegicus [12], in the experiment with Rattus norvegicus [13], with Rattus norvegicus [14] and with Rattus norvegicus [15] was Active. Further, the result with Rattus norvegicus [9] was inactive.
